Source: US8309766B2 (Obschestvo S. Organichennoi Otvetstvennostiyu …, priority 2005, dated 2012)
Like-named read-outs stand apart in the source and are kept apart here.

Experiments:
[1] = tested on: "acetic contortions" in mice; assay: Analgetic activity on the model "acetic contortions"; assay type: in vivo, white mongrel mice; details: for inhibition in vivo at 10 mg/kg / response vs control in vivo at 10 mg/kg: Mus musculus, ip, 0.25 h; for inhibition in vivo at 10 mg/kg: read-out: Analgetic effect (%); for response vs control in vivo at 10 mg/kg: read-out: C, % to the control
Method: The tests were conducted on males of white mongrel mice weighing 22-24 grams. The specific pain response (“contortions”) were elicited by intraperitoneal administration to mice of 0.75% acetic acid solution. The following signs were taken into consideration: the number of seizure contractions of abdominal muscles accompanied by stretching the hind limbs and sagging the back. Analgetic effect was assessed by decrease in the number of contortions in animals in percent to the control for 15 minutes post administration of acetic acid. The technique of the tests is disclosed in Koster R., Anderson M., de Beer B.//Fed. Proc. 1959. V. 18. P. 412. Compounds under testing were administered intraperitoneally (using a probe) at a dose 10 μg/kg 60 minutes prior to injection of the acid. Diclofenac (10 mg/kg) was used as a reference drug. Analgetic effect was calculated according to the formula: […]
wherein Ck is the number of contortions in the control group,
Co is the number of contortions in the test group.

"hot plate" test in mice = assay: Analgetic activity on the model "hot plate"; assay type: in vivo, white mongrel mice; details: for response vs control in vivo at 10 mg/kg / change in vivo at 10 mg/kg / change in vivo at 200 mg/kg / response vs control in vivo at 200 mg/kg: Mus musculus; for response vs control in vivo at 10 mg/kg: percent of background; for response vs control in vivo at 10 mg/kg / response vs control in vivo at 200 mg/kg: read-out: Latent time of NT (%); for change in vivo at 10 mg/kg / change in vivo at 200 mg/kg: read-out: Analgesia (%)
Method: The tests were conducted on males of white mongrel mice weighing 22-24 grams. The animals were individually placed on a hot plate (manufactured by the firm “Ugo Basile”), a temperature of which remained constant and was equal to 55° C. The following first manifestations of pain reaction were recorded: licking paws, jumping up prior to administration of a substance (background parameters) and 0.5, 1, 2, 3 and 4 hours post administration of a substance. Substances were administered […] (using a probe). A weighed amount of a substance was thoroughly mixed in 0.1 ml Tween 80 until a solution was obtained, then normal saline was added up to a volume of 0.5 ml. Average latent time of nociception threshold (NT) was calculated in every group. The results obtained were expressed in percent of the background values. Analgetic effect (in %) was calculated according to the formula: A−100%=X, wherein A is a background parameter; X is analgetic effect (in %)
A is (time 0.5 to 4 hours post administration×100%): background time
As reference drugs, Analgin (150 mg/kg), Paracetamol (200 mg/kg), Ketorol (10 mg/kg), were used.

[2] = dose 10 mg/kg (table title), 60 minutes prior to acetic acid
[3] = 10 mg/kg, 30 minutes post administration
[4] = 10 mg/kg, 60 minutes post administration
[5] = 10 mg/kg, 120 minutes post administration
[6] = 0.5 h, Paracetamol 200 mg/kg, 30 minutes
[7] = 1 h, Paracetamol 200 mg/kg, 60 minutes
[8] = 2 h, Paracetamol 200 mg/kg, 120 minutes

Structure (SMILES) | inhibition in vivo at 10 mg/kg ([1]; dose 10 mg/kg (table title)) [%] | response vs control in vivo at 10 mg/kg ([1]; dose 10 mg/kg (table title)) [%] | C ± m (the number of contortions for 15 minutes) [1, 2] | latent time of nociception threshold, M ± m ("hot plate" test in mice; [3]) [s] | latent time of nociception threshold, M ± m ("hot plate" test in mice; [4]) [s] | latent time of nociception threshold, M ± m ("hot plate" test in mice; [5]) [s] | response vs control in vivo at 10 mg/kg ("hot plate" test in mice; 0.5 h, 10 mg/kg, 30 minutes) [%] | change in vivo at 10 mg/kg ("hot plate" test in mice; 0.5 h, 10 mg/kg, 30 minutes) [%] | response vs control in vivo at 10 mg/kg ("hot plate" test in mice; 1 h, 10 mg/kg, 60 minutes) [%] | change in vivo at 10 mg/kg ("hot plate" test in mice; 1 h, 10 mg/kg, 60 minutes) [%] | response vs control in vivo at 10 mg/kg ("hot plate" test in mice; 2 h, 10 mg/kg, 120 minutes) [%] | change in vivo at 10 mg/kg ("hot plate" test in mice; 2 h, 10 mg/kg, 120 minutes) [%] | other results
COC(=O)C(Cc1ccccc1)NC(=O)Cc1ccc(O)cc1 (stereo not shown) [Compound V, p-hydroxyphenylacetylphenylalanine methyl ester] | 39.3 | 60.7 | 16.2 ± 2.6 | 4.85 ± 0.39 | 5.9 ± 0.81 | 6.58 ± 0.72 | 130 | 29.7 | 158 | 57.8 | 176 | 75.9 | 
O=C(O)Cc1ccccc1Nc1c(Cl)cccc1Cl [Diclofenac, reference compound] |  |  |  |  |  |  |  |  |  |  |  |  | C ± m (the number of contortions for 15 minutes) ([1]; Diclofenac 10 μg/kg [sic]): 12.9 ± 2.13
O=C(Cc1ccc(O)cc1)NCCc1ccc(O)cc1 [Compound VII, p-hydroxyphenylacetyltyramine] |  |  |  |  | 6.9 ± 0.72 | 8.2 ± 0.94 |  |  | 134 | 34.5 | 159 | 58.9 | 
CC(=O)N[C@@H](Cc1ccc(O)cc1)C(=O)NCCc1ccc(O)cc1 [Compound XXIX, acetyltyrosyltyramine] | 42.9 | 57.1 | 15.7 ± 1.9 | 6.3 ± 1.2 | 7.2 ± 0.8 | 8.0 ± 1.0 | 197 | 197 | 225 | 125 | 250 | 150 | 
O=C(CCc1ccccc1)NCCc1ccccc1 [Compound XI, 3-phenylpropionylphenylethylamine] | 38.2 | 61.8 | 21.2 ± 2.5 | 5.35 ± 0.98 | 6.49 ± 1.1 |  | 143 | 43.4 | 174 | 74 |  |  | latent time of nociception threshold, M ± m ("hot plate" test in mice; 10 mg/kg, 180 minutes post administration): 6.27 ± 0.33 s; latent time of nociception threshold, M ± m ("hot plate" test in mice; 10 mg/kg, 240 minutes post administration): 4.07 ± 0.26 s; response vs control in vivo at 10 mg/kg ("hot plate" test in mice; 3 h, 10 mg/kg, 180 minutes): 141%; change in vivo at 10 mg/kg ("hot plate" test in mice; 3 h, 10 mg/kg, 180 minutes): 41.3%; response vs control in vivo at 10 mg/kg ("hot plate" test in mice; 4 h, 10 mg/kg, 240 minutes): 136%; change in vivo at 10 mg/kg ("hot plate" test in mice; 4 h, 10 mg/kg, 240 minutes): 35.9%
CC(=O)Nc1ccc(O)cc1 [Paracetamol, reference compound] |  |  |  |  |  |  |  |  |  |  |  |  | change in vivo at 200 mg/kg ("hot plate" test in mice; [6]): 139%; response vs control in vivo at 200 mg/kg ("hot plate" test in mice; [6]): 239%; change in vivo at 200 mg/kg ("hot plate" test in mice; [7]): 58%; response vs control in vivo at 200 mg/kg ("hot plate" test in mice; [7]): 158%; change in vivo at 200 mg/kg ("hot plate" test in mice; [8]): 92%; response vs control in vivo at 200 mg/kg ("hot plate" test in mice; [8]): 192%; latent time of nociception threshold, M ± m ("hot plate" test in mice; Paracetamol 200 mg/kg, 30 minutes): 9.44 ± 1.3 s; latent time of nociception threshold, M ± m ("hot plate" test in mice; Paracetamol 200 mg/kg, 60 minutes): 6.24 ± 0.82 s; latent time of nociception threshold, M ± m ("hot plate" test in mice; Paracetamol 200 mg/kg, 120 minutes): 7.6 ± 1.15 s
